Earlier results as cited in patent US12569628B2, “Delivery of medicinal gas in a liquid medium” (Third Pole, Inc., priority 2022, dated 2026).
Where two headings read alike, the source gives them in different places.

Legend:
immune system = details: low concentrations

[N]=O [NO, nitric oxide]
concentration at which NO stimulates the immune system (immune system): 10^−12 to 10^−9 M | Henry's law constant kH (NO in alcohol): approximately 6.65×10^−5 mol/m^3 Pa | Henry's law constant kH (NO in water): 1.9×10^−5 mol/m^3 Pa
